Columns and labels:
Assay in all cases: Weeding effect in post-emergence stage
Type in all cases: in vivo
Conditions in all cases: 250 g/ha; 2 leaf stage; 15 days after application; fresh weight control rate
Digitaria sanguinalis = tested on: Digitaria sanguinalis
Summary of the method: (§1)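 Two-leaf-stage pot plants, spray-tower application at 500/250/125/60/30/15 g/ha with methyl oleate EC synergist; fresh weight control level (0–5) read at 15 days post-treatment, three replicates averaged.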

Abutilon theophrasti = tested on: Abutilon theophrasti
Summary of the method: as §1

Setaria viridis = tested on: Setaria viridis
Summary of the method: as §1

Echinochloa crusgali = tested on: Echinochloa crusgali
Summary of the method: as §1

Amaranthus retroflexus = tested on: Amaranthus retroflexus
Summary of the method: as §1

Row | Structure (SMILES) | weeding effect in post-emergence stage, activity level (growth control rate), Digitaria sanguinalis (Digitaria sanguinalis) | weeding effect in post-emergence stage, activity level (growth control rate), Abutilon theophrasti (Abutilon theophrasti) | weeding effect in post-emergence stage, activity level (growth control rate), Setaria viridis (Setaria viridis) | weeding effect in post-emergence stage, activity level (growth control rate), Echinochloa crusgali (Echinochloa crusgali) | weeding effect in post-emergence stage, activity level (growth control rate), Amaranthus retroflexus (Amaranthus retroflexus)
1 | COC(C)C[S@@+]([O-])c1c(C(F)(F)F)ccc(C(=O)Nc2nnc(C)o2)c1F (stereo partly drawn) [Compound 74] | 5 (Level 5: growth control rate is above 85%) | 5 (Level 5: growth control rate is above 85%) | 5 (Level 5: growth control rate is above 85%) | 5 (Level 5: growth control rate is above 85%) | 5 (Level 5: growth control rate is above 85%)
2 | CC=CC[S+]([O-])c1c(C(F)(F)F)ccc(C(=O)Nc2nnc(C)o2)c1OC (stereo not drawn) [Compound 313] | 5 (Level 5: growth control rate is above 85%) | 5 (Level 5: growth control rate is above 85%) | 5 (Level 5: growth control rate is above 85%) | 5 (Level 5: growth control rate is above 85%) | 5 (Level 5: growth control rate is above 85%)
3 | CCCCCC[S@@+]([O-])c1c(C(F)(F)F)ccc(C(=O)Nc2nnc(C)o2)c1F [Compound 12] | 3 (Level 3: growth control rate is greater than or equal to 40% and less than 60%) | 5 (Level 5: growth control rate is above 85%) | 3 (Level 3: growth control rate is greater than or equal to 40% and less than 60%) | 5 (Level 5: growth control rate is above 85%) | 5 (Level 5: growth control rate is above 85%)
4 | CSc1c(C(=O)Nc2nnc(C)o2)ccc(C(F)(F)F)c1[S@+]([O-])CCCl [Compound 562] | 5 (Level 5: growth control rate is above 85%) | 5 (Level 5: growth control rate is above 85%) | 5 (Level 5: growth control rate is above 85%) | 5 (Level 5: growth control rate is above 85%) | 5 (Level 5: growth control rate is above 85%)
5 | COc1c(C(=O)Nc2nnc(C)o2)ccc(C(F)(F)F)c1[S@+]([O-])C(C)C [Compound 307] | 5 (Level 5: growth control rate is above 85%) | 5 (Level 5: growth control rate is above 85%) | 5 (Level 5: growth control rate is above 85%) | 5 (Level 5: growth control rate is above 85%) | 5 (Level 5: growth control rate is above 85%)
6 | Cc1nnc(NC(=O)c2ccc(C(F)(F)F)c([S@+]([O-])C(F)(F)C(F)(F)F)c2F)o1 [Compound 31] | 5 (Level 5: growth control rate is above 85%) | 5 (Level 5: growth control rate is above 85%) | 5 (Level 5: growth control rate is above 85%) | 5 (Level 5: growth control rate is above 85%) | 5 (Level 5: growth control rate is above 85%)
